Columns and labels:
[1] = target: Tyrosine-protein kinase JAK1 (Homo sapiens, UniProt P23458)
[2] = target: Non-receptor tyrosine-protein kinase TYK2 (Homo sapiens, UniProt P29597)
[3] = target: Tyrosine-protein kinase BTK (Homo sapiens, UniProt Q06187)
Sequence of Tyrosine-protein kinase BTK (Q06187 whole entry): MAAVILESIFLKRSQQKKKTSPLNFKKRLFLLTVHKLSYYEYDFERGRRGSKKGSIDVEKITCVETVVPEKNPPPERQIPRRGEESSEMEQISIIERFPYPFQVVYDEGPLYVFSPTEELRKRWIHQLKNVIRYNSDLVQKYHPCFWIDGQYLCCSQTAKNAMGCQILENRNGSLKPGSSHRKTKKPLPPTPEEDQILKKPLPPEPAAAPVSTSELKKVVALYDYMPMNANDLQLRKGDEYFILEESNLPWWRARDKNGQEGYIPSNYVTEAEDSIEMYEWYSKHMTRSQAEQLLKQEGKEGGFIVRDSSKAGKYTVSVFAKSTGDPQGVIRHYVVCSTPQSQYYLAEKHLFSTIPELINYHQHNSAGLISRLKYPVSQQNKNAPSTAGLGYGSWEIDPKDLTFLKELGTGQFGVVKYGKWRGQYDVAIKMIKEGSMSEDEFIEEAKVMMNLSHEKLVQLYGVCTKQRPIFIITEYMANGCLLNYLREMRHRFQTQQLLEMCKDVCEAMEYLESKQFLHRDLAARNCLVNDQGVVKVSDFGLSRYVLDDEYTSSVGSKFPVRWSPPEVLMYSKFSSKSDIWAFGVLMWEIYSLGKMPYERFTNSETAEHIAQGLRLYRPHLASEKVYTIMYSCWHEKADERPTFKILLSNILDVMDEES

Sequence of Tyrosine-protein kinase JAK1 (P23458 whole entry): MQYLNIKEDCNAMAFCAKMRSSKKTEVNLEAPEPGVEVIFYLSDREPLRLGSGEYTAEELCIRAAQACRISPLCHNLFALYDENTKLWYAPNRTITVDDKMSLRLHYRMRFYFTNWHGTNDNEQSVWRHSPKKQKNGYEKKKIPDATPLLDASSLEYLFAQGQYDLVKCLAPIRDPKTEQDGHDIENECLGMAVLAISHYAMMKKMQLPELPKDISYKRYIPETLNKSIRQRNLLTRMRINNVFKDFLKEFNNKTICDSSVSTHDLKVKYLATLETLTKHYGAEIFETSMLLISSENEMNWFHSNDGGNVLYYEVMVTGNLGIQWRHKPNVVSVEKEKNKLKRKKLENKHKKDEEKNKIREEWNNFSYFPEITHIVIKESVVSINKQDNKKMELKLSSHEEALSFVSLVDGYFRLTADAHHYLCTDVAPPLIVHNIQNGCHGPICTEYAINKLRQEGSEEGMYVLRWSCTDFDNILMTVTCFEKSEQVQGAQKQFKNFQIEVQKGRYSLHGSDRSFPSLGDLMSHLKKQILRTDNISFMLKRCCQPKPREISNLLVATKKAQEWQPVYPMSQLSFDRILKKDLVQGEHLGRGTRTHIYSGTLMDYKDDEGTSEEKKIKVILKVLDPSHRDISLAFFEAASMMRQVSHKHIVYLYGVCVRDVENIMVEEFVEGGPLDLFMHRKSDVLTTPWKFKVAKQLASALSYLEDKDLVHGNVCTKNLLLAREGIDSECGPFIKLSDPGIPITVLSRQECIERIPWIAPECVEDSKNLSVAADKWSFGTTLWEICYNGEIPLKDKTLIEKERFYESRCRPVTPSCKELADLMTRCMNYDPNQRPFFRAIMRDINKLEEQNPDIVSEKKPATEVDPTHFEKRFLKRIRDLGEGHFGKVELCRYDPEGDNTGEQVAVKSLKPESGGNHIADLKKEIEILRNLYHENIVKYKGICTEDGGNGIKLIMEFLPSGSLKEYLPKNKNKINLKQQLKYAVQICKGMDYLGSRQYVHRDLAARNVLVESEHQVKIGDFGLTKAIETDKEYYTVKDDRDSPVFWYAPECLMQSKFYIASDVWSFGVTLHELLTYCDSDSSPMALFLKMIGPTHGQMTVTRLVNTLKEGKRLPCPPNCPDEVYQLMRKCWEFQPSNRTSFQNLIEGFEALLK
Sequence of Non-receptor tyrosine-protein kinase TYK2 (P29597 whole entry): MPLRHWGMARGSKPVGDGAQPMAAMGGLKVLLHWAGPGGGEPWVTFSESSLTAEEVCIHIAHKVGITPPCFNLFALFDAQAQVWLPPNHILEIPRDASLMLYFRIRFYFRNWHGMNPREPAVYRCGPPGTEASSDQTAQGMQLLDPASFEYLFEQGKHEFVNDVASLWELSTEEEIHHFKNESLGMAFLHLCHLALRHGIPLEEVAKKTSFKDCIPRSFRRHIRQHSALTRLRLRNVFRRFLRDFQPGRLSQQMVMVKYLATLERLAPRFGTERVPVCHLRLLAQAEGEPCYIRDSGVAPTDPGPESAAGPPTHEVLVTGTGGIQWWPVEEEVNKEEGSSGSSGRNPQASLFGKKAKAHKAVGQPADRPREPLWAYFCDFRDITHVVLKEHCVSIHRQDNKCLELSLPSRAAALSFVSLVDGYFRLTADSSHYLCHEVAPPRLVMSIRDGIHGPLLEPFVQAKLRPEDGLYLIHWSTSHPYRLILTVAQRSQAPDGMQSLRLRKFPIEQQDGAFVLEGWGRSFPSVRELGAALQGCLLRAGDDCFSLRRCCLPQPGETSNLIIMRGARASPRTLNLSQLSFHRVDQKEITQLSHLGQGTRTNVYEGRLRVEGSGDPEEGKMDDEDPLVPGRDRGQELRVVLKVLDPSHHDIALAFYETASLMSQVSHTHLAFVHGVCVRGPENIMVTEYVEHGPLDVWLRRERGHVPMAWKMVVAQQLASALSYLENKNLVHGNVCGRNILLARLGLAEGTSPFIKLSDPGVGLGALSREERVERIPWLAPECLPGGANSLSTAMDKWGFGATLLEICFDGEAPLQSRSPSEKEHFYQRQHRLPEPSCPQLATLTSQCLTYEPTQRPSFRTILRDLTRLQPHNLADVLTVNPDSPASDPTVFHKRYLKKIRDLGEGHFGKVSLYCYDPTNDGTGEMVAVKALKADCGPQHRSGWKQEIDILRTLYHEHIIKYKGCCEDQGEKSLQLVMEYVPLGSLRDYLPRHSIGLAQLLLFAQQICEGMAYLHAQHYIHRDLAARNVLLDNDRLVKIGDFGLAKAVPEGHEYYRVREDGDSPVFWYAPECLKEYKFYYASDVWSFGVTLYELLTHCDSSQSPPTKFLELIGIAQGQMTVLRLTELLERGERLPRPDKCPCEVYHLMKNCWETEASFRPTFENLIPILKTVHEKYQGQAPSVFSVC

Q: With `CN(C)CC(=O)N1CCCC(Cn2nc(-c3cnn(C)c3)c3c(N)ncnc32)C1` (stereo not given) as the compound, how does the IC50 [1] read?
A: 2.29 µM

Q: Which results are given for `COCCn1cc(-c2nn(C3CCCN(C(=O)CC#N)C3)c3ncnc(N)c23)cn1` (stereo not given)?
A: IC50 [1]: 0.497 µM; IC50 [2]: 3.22 µM

Q: Which results are given for `Cn1cc(-c2nn(CC3CCCN(C(=O)CC#N)C3)c3ncnc(N)c23)cn1` (stereo not given)?
A: IC50 [1]: 0.147 µM; IC50 [2]: 2.35 µM

Q: For `Cn1cc(-c2nn(C3CCN(C#N)CC3)c3ncnc(N)c23)cn1`, which IC50 [1] is on record?
A: 0.165 µM

Q: With `CN(C)CC(=O)N1CCCC(n2nc(-c3cnn(C)c3)c3c(N)ncnc32)C1` (stereo not given) as the compound, how does the IC50 [1] read?
A: 1.37 µM

Q: With `C=CC(=O)N1CCCC(Cn2nc(-c3cnn(C)c3)c3c(N)ncnc32)C1` (stereo not given) as the compound, how does the IC50 [1] read?
A: 1.95 µM

Q: And the IC50 [2]?
A: 3.96 µM

Q: What about the IC50 [3] of the same compound?
A: 0.481 µM

Q: How did the IC50 [1] turn out when `C=CC(=O)N1CCCC(n2nc(-c3cnn(C)c3)c3c(N)ncnc32)C1` (stereo not given) was run?
A: 0.618 µM

Q: What about the IC50 [2] of the same compound?
A: 1.18 µM

Q: And the IC50 [3]?
A: 0.18 µM

Q: `COCCn1cc(-c2nn(CC3CCCN(C(=O)CC#N)C3)c3ncnc(N)c23)cn1` (stereo not given) was tested. Which IC50 [1] did it give?
A: 0.497 µM

Q: And the IC50 [2]?
A: > 3 µM

Q: Which results are given for `C=CC(=O)N1CCC(n2nc(-c3cnn(CCOC)c3)c3c(N)ncnc32)C1` (stereo not given)?
A: IC50 [1]: 1.07 µM; IC50 [2]: 1.72 µM; IC50 [3]: 0.126 µM

Q: What does the source list for `Cn1cc(-c2nn(C3CCCN(C(=O)CC#N)C3)c3ncnc(N)c23)cn1` (stereo not given)?
A: IC50 [1]: 0.342 µM; IC50 [2]: 2.43 µM

Q: Which IC50 [1] does the source give for `COCCn1cc(-c2nn(C3CCN(C#N)CC3)c3ncnc(N)c23)cn1` here?
A: 0.112 µM

Q: For `C=CC(=O)N1CCC(n2nc(-c3cnn(C)c3)c3c(N)ncnc32)C1` (stereo not given), which IC50 [1] is on record?
A: 0.694 µM

Q: And the IC50 [2]?
A: 1.42 µM

Q: What about the IC50 [3] of the same compound?
A: 0.203 µM

Q: `C=CC(=O)N1CCCC(n2nc(-c3cnn(CCOC)c3)c3c(N)ncnc32)C1` (stereo not given) was tested. Which IC50 [1] did it give?
A: 1.35 µM

Q: What about the IC50 [2] of the same compound?
A: 2.12 µM

Q: And the IC50 [3]?
A: 0.159 µM

Q: `C=CC(=O)N1CCCC(Cn2nc(-c3cnn(CCOC)c3)c3c(N)ncnc32)C1` (stereo not given) was tested. Which IC50 [1] did it give?
A: 1.67 µM

Q: What about the IC50 [2] of the same compound?
A: 3.3 µM

Q: And the IC50 [3]?
A: 0.42 µM

From ChEMBL document CHEMBL4229546, “Structure-based design and synthesis of 1H-pyrazolo[3,4-d]pyrimidin-4-amino derivatives as Janus kinase 3 inhibitors” (Bioorg Med Chem, 2018)
